Patent US20030061671A1, “Thioxanthone dyes with improved solubility and a method of preparing 2-oxybenzanthrones as intermediate materials for making of these dyes” (priority 2001, published 2003)
Where two headings read alike, the source gives them in different places.

Columns and labels:
[1] = Solubility comparison in chloroform (chloroform added to 0.1 g dye until full solubility); format: physicochemical
Experimental: Solubility Comparison of the Claimed compound and the Prototype
Two mixtures were prepared for comparison. The first one contained a dye prepared as per Example 1 by taking 0.1 g of the dye and adding chloroform until full solubility. The second mixture was prepared using 0.1 g of 6-methoxy-14H-anthra(2,1,9-mna)thioxanthene-14-one dye and also adding chloroform until its full solubility. At the end, 30 ml of chloroform was required to solute 0.1 g of the dye in the first mixture while 120 ml of the chloroform was required to solute the same amount of dye in case of the prototype.

[2] = colorant described by Carlini et al.; cited from earlier work

6-n-Octyloxy-14H-anthra(2,1,9 mna)thioxanthene-14-one [Example 1]
chloroform required to solute 0.1 g of the dye ([1]; 0.1 g dye, chloroform added until full solubility): 30 mL | improvement in solubility in chloroform versus prototype ([1]; claimed dye vs 6-methoxy prototype, chloroform): four-fold

COc1cc2c3ccccc3c(=O)c3ccc4c5ccccc5sc1c4c32 [6-methoxy-14H-anthra(2,1,9-mna)thioxanthene-14-one]
chloroform required to solute 0.1 g of the dye [1]: 120 mL | solubility in organic solvents and polymer materials [2]: poorly soluble
